Test system: 610 metabolites from 63 biochemical pathways
Experiment: Targeted broad-spectrum plasma metabolomic analysis (LC-MS/MS), paired pre-infusion vs post-infusion (2-days and 6-weeks)
Type: in vivo, human
Conditions: for Linear Ratio / VIP Score / Z Abs / Z Score: plasma
Protocol: Targeted, broad-spectrum, plasma metabolomic analysis of 610 metabolites from 63 biochemical pathways was performed by high performance liquid chromatography and tandem mass spectrometry (LC-MS/MS) on the samples collected from patients in Example 1. Venous blood was collected between the hours of 8 am and 5 pm, at least 3 hours after the last meal, into lithium-heparin vacutainer tubes (BD #367884). Plasma was separated by centrifugation at 900 g×10 minutes at room temperature within one hour of collection. The resulting fresh lithium-heparin plasma was transferred to labeled 1.2 ml or 2.0 ml externally threaded cryotubes with a minimum headspace air gap for storage at −80° C. for analysis. Samples were analyzed on an AB SCIEX QTRAP 5500 triple quadrupole mass spectrometer equipped with a Turbo V electrospray ionization (ESI) source, Shimadzu LC-20A UHPLC system, and a PAL CTC autosampler. Typically, 90 μl of plasma was thawed on ice and transferred to a 1.7 ml Eppendorf tube. Five (5.0) μl of a cocktail containing 25-35 commercial stable isotope internal standards, and 5.0 μl of 57 stable isotope internal standards that were custom-synthesized in E. coli NCM3722, Caenorhabditis elegans N2, and Komagataella phaffii (ATCC 76273; formerly known as Pichia pastoris) by metabolic labeling with 13C-glucose and 13C-bicarbonate, were added, mixed, and incubated for 10 min at 20° C. to permit small molecules and vitamins in the internal standards to associate with plasma binding proteins. Macromolecules (protein, DNA, RNA, glycans, etc.) were precipitated by extraction with 4 volumes (400 μl) of cold (−20° C.), acetonitrile:methanol (50:50) (LCMS grade, Cat #LC015-2.5 and GC230-4, Burdick & Jackson, Honeywell), vortexed vigorously, and incubated on crushed ice for 10 min, then removed by centrifugation at 16,000 g×10 min at 4° C. The supernatants containing the extracted metabolites and internal standards in the resulting 40:40:20 solvent mix of acetonitrile:methanol:water were transferred to labeled cryotubes and stored at −80° C. for LCMS/MS analysis.
LC-MS/MS analysis was performed by scheduled multiple reaction monitoring (sMRM) under Analyst v1.6.2 software control in both negative and positive mode with rapid polarity switching (50 ms). Nitrogen was used for curtain gas (set to 30), collision gas (set to high), ion source gas 1 and 2 (set to 35). The source temperature was 500° C. Spray voltage was set to −4500 V in negative mode and 5500 V in positive mode. The values for Q1 and Q3 mass-to-charge ratios (m/z), declustering potential (DP), entrance potential (EP), collision energy (CE), and collision cell exit potential (CXP) were determined and optimized for each MRM for each metabolite. Ten microliters of extract was injected by PAL CTC autosampler via a 10 μl stainless steel loop into a 250 mm×2.0 mm, 4 μm polymer based NH2 HPLC column (Asahipak NH2P-40 2E, Showa Denko America, Inc., NY) held at 25° C. for chromatographic separation. The mobile phase was solvent A: 95% water with 20 mM (NH4)2CO3 (Sigma, Fluka Cat #74415-250G-F), 5% acetonitrile, and 38 mM NH4OH (Sigma, Fluka Cat #17837-100ML), final pH 9.75; solvent B: 100% acetonitrile. Separation was achieved using the following gradient: 0-3.5 min: 95% B, 3.6-8 min: 85% B, 8.1-13 min: 75% B, 13.5-35 min: 0% B, 36-46 min: 95% B, 46.1 min: end. The flow rate was 200 μl/min. Pump pressures ranged from 920-2600 psi over the course of the gradient. All the samples were kept at 4° C. during analysis. The chromatographic peaks were identified using MultiQuant (v3.0, Sciex), confirmed by manual inspection, and the peak areas integrated. […]

[1] = Nitric Oxide, Superoxide, Peroxide Metabolism, 6-weeks
[2] = Nitric Oxide, Superoxide, Peroxide, 2-days
[3] = Phospholipid Metabolism, 2-days
[4] = Phospholipid Metabolism, 6-weeks

Structure (SMILES): Cc1ccc(C(=O)Nc2ccc(S(=O)(=O)O)c3cc(S(=O)(=O)O)cc(S(=O)(=O)O)c23)cc1NC(=O)c1cccc(NC(=O)Nc2cccc(C(=O)Nc3cc(C(=O)Nc4ccc(S(=O)(=O)O)c5cc(S(=O)(=O)O)cc(S(=O)(=O)O)c45)ccc3C)c2)c1 [Suramin, suramin]
- Fold Enrichment (Obs/Exp) (Krebs Cycle, 2-days): 1.6
- Fraction of Impact (VIP Score) Explained (% of 119.7) (Krebs Cycle, 2-days): 3%
- Impact (Sum VIP Score) (Krebs Cycle, 2-days): 3.3
- Increased (Krebs Cycle, 2-days): 2
- Observed Hits in the Top 61 Metabolites (Krebs Cycle, 2-days): 2
- Decreased (Krebs Cycle, 6-weeks): 0
- Fold Enrichment (Obs/Exp) (Krebs Cycle, 6-weeks): 2.0
- Fraction of Impact (VIP Score) Explained (% of 94.6) (Krebs Cycle, 6-weeks): 5%
- Impact (Sum VIP Score) (Krebs Cycle, 6-weeks): 4.3
- Increased (Krebs Cycle, 6-weeks): 2
- Observed Hits in the Top 48 Metabolites (Krebs Cycle, 6-weeks): 2
- Linear Ratio (L-Asparagine, 6-weeks): 1.360
- VIP Score (L-Asparagine, 6-weeks): 1.824
- Z Abs (L-Asparagine, 6-weeks): 1.581
- Z Score (L-Asparagine, 6-weeks): 1.581
- Linear Ratio (L-Cystine, 6-weeks): 1.190
- VIP Score (L-Cystine, 6-weeks): 1.774
- Z Abs (L-Cystine, 6-weeks): 1.060
- Z Score (L-Cystine, 6-weeks): 1.060
- Linear Ratio (L-Kynurenine, 6-weeks): 1.303
- VIP Score (L-Kynurenine, 6-weeks): 2.096
- Z Abs (L-Kynurenine, 6-weeks): 1.751
- Z Score (L-Kynurenine, 6-weeks): 1.751
- Linear Ratio (L-Phenylalanine, 6-weeks): 1.245
- VIP Score (L-Phenylalanine, 6-weeks): 1.875
- Z Abs (L-Phenylalanine, 6-weeks): 1.381
- Z Score (L-Phenylalanine, 6-weeks): 1.381
- Linear Ratio (L-Proline, 6-weeks): 1.196
- VIP Score (L-Proline, 6-weeks): 1.546
- Z Abs (L-Proline, 6-weeks): 0.749
- Z Score (L-Proline, 6-weeks): 0.749
- Linear Ratio (L-Serine, 6-weeks): 1.152
- VIP Score (L-Serine, 6-weeks): 1.505
- Z Abs (L-Serine, 6-weeks): 0.954
- Z Score (L-Serine, 6-weeks): 0.954
- Linear Ratio (Lathosterol, 6-weeks): 1.284
- VIP Score (Lathosterol, 6-weeks): 1.844
- Z Abs (Lathosterol, 6-weeks): 1.079
- Z Score (Lathosterol, 6-weeks): 1.079
- Linear Ratio (Methionine sulfoxide, 6-weeks): 1.409
- VIP Score (Methionine sulfoxide, 6-weeks): 2.104
- Z Abs (Methionine sulfoxide, 6-weeks): 2.083
- Z Score (Methionine sulfoxide, 6-weeks): 2.083
- Linear Ratio (Mevalonic acid, 6-weeks): 1.386
- VIP Score (Mevalonic acid, 6-weeks): 1.673
- Z Abs (Mevalonic acid, 6-weeks): 1.036
- Z Score (Mevalonic acid, 6-weeks): 1.036
- Decreased (Microbiome Metabolism, 2-days): 0
- Fold Enrichment (Obs/Exp) (Microbiome Metabolism, 2-days): 1.6
- Fraction of Impact (VIP Score) Explained (% of 119.7) (Microbiome Metabolism, 2-days): 8%
- Impact (Sum VIP Score) (Microbiome Metabolism, 2-days): 9.3
- Increased (Microbiome Metabolism, 2-days): 4
- Observed Hits in the Top 61 Metabolites (Microbiome Metabolism, 2-days): 4
- Decreased (Microbiome Metabolism, 6-weeks): 0
- Fold Enrichment (Obs/Exp) (Microbiome Metabolism, 6-weeks): 2.0
- Fraction of Impact (VIP Score) Explained (% of 94.6) (Microbiome Metabolism, 6-weeks): 9%
- Impact (Sum VIP Score) (Microbiome Metabolism, 6-weeks): 8.4
- Increased (Microbiome Metabolism, 6-weeks): 4
- Observed Hits in the Top 48 Metabolites (Microbiome Metabolism, 6-weeks): 4
- Decreased [1]: 0
- Fold Enrichment (Obs/Exp) [1]: 4.5
- Fraction of Impact (VIP Score) Explained (% of 94.6) [1]: 2%
- Impact (Sum VIP Score) [1]: 2.2
- Increased [1]: 1
- Observed Hits in the Top 48 Metabolites [1]: 1
- Decreased [2]: 1
- Fold Enrichment (Obs/Exp) [2]: 3.5
- Fraction of Impact (VIP Score) Explained (% of 119.7) [2]: 2%
- Impact (Sum VIP Score) [2]: 1.9
- Increased [2]: 0
- Observed Hits in the Top 61 Metabolites [2]: 1
- Linear Ratio (Octanoylcarnitine, 6-weeks): 0.703
- VIP Score (Octanoylcarnitine, 6-weeks): 1.780
- Z Abs (Octanoylcarnitine, 6-weeks): 1.451
- Z Score (Octanoylcarnitine, 6-weeks): −1.451
- Linear Ratio (PE (18:0/18:0), 6-weeks): 0.644
- VIP Score (PE (18:0/18:0), 6-weeks): 1.555
- Z Abs (PE (18:0/18:0), 6-weeks): 1.331
- Z Score (PE (18:0/18:0), 6-weeks): −1.331
- Decreased [3]: 3
- Fold Enrichment (Obs/Exp) [3]: 0.3
- Fraction of Impact (VIP Score) Explained (% of 119.7) [3]: 5%
- Impact (Sum VIP Score) [3]: 5.7
- Increased [3]: 0
- Observed Hits in the Top 61 Metabolites [3]: 3
- Decreased [4]: 1
- Fold Enrichment (Obs/Exp) [4]: 0.1
- Fraction of Impact (VIP Score) Explained (% of 94.6) [4]: 2%
- Impact (Sum VIP Score) [4]: 1.6
- Increased [4]: 0
- Observed Hits in the Top 48 Metabolites [4]: 1
- Decreased (Purine Metabolism, 2-days): 5
- Fold Enrichment (Obs/Exp) (Purine Metabolism, 2-days): 2.4

From patent publication US20190358181A1, “METHODS FOR AUTISM SPECTRUM DISORDER PHARMACOTHERAPY” (priority 2017, published 2019)
